Assay results reported in patent US20090176773A1, “Non-Peptidic Inhibitors of AKAP/PKA Interaction” (FORSCHUNGSVERBUND BERLIN E.V., priority 2005, published 2009).

Key:
[1] = target: T1, interaction of AKAP18delta with regulatory RIIalpha subunits of PKA in IMCD cells (Rattus norvegicus, UniProt P12368+Q6JP77); assay: cAMP agarose precipitation, Western blot and RII overlay in IMCD cells; assay type: cell-based; details: 100 μM, 30 min, FIG. 22
T1 construct: endogenous in cells; host or cells: primary cultured rat IMCD cells
Description: The substance (see Tables A, B and D) was identified by screening a substance library comprising 20,064 compounds, using the ELISA-based test array illustrated in FIG. 17. Primarily cultured IMCD cells either remained untreated (control) or were incubated for 30 min with substance 990 (100 μM) or with cAMP as negative control. Subsequently, the cells were lysed and subjected to cAMP agarose precipitation (Henn et al., JBC 279, 26654, 2004).
A: AKAP18delta was detected in the lysates and in the cAMP agarose precipitates (cAMP agarose) using the AKAP18delta-specific antibody A18delta4 in a Western blot (Henn et al., 2004). cAMP was added to the batch as negative control. As a result, binding of regulatory subunits of PKA to the cAMP agarose was inhibited in a competitive fashion. For this reason, no AKAPs are precipitated and, as a consequence, AKAP18delta cannot be detected in this sample. AKAP18delta produced in a recombinant fashion was used as positive control.
B: To detect the AKAPs in the lysates and cAMP agarose precipitates, an RII overlay was carried out (Henn et al., JBC 279, 26654, 2004). AKAP18delta produced in a recombinant fashion was detected as positive control. AKAP18delta is indicated by arrows in A and B.

[2] = system: vasopressin (AVP)-dependent redistribution of the aquaporin-2 (AQP2) water channel in renal principal cells (IMCD cells); assay: AVP-induced redistribution of AQP2 in primarily cultured IMCD cells (immunofluorescence, laser scanning microscope); assay type: cell-based, rat; details: FIG. 18 and 21
Description: Initially, collecting duct cells from the inner medulla of rat kidneys (IMCD cells) can be stimulated with AVP in the presence or absence of the substances so as to stimulate AQP2 translocation. Thereafter, immunofluorescence staining can be performed, wherein the cells—following incubation—are fixed and made permeable. Using antibodies coupled to fluorescent dyes, the intracellular localization of AQP2 can subsequently be determined under a fluorescence microscope. In this way it is possible to investigate the influence of the substances on the presumably AKAP18delta-dependent translocation of AQP2.
Inhibition of the vasopressin (AVP)-dependent redistribution of the aquaporin-2 (AQP2) water channel in renal principal cells by the substances specified (see Table B; concentrations of inhibitors in μM). Primarily cultured principal cells from the inner medulla of rat kidneys (IMCD cells) represent a model for the AVP-induced translocation of AQP2. Said redistribution is the molecular basis of AVP-induced water reabsorption in the kidneys. AQP2 was detected by means of a specific antiserum and Cy3-labelled secondary antibodies in untreated cells (control) and in cells treated with AVP or substances, using a laser scanning microscope (Tamma et al., 2003; Henn et al., 2004).
Effect of the low-molecular weight substances 18882, 990 and 990 derivatives SM61 and SM65 on AVP-induced redistribution of AQP2 in IMCD cells (see FIG. 18). The structures and chemical properties of the substances are illustrated in Tables A, B and C (concentrations of inhibitors in μM). AQP2 was detected by means of a specific antiserum and Cy3-labelled secondary antibodies in untreated cells (control) and in cells treated with AVP or substances, using a laser scanning microscope (Tamma et al., 2003; Henn et al., 2004). […] In contrast, the substances 18882 and the 990 derivative SM65 have no influence on AVP-induced AQP2 redistribution at the concentrations used.

[3] = target: T2, interaction of AKAP18delta with regulatory RIIalpha subunits of PKA in myocardial cells (Rattus norvegicus, UniProt P12368+Q6JP77); assay: cAMP agarose precipitation, Western blot and RII overlay in neonatal myocardial cells; assay type: cell-based; details: 100 μM, 30 min, FIG. 23
T2 construct: endogenous in cells; host or cells: primary cultured neonatal (rat) myocardial cells
Description: In contrast, substance 990 has no influence on this interaction. The substances (see Tables A, B and D) were identified by screening a substance library comprising 20,064 compounds, using the ELISA-based test array illustrated in FIG. 17. Primarily cultured neonatal myocardial cells either remained untreated (control) or were incubated for 30 min with the substances 990, 18882 (100 μM each time) or with cAMP as negative control. Subsequently, the cells were lysed and subjected to cAMP agarose precipitation (Henn et al., JBC 279, 26654, 2004). A: AKAP18delta was detected in the lysates and in the cAMP agarose precipitates (cAMP agarose), using the AKAP18delta-specific antibody A18delta4 in a Western blot (Henn et al., JBC 279, 26654, 2004). cAMP was added to the batch as negative control. As a result, binding of regulatory subunits of PKA to the cAMP agarose was inhibited in a competitive fashion. For this reason, no AKAPs are precipitated and, as a consequence, AKAP18delta cannot be detected in this sample. AKAP18delta produced in a recombinant fashion was used as positive control. B: Using Western blotting, regulatory RIIbeta subunits of PKA were detected in the same samples as specified in A. As expected, no RIIbeta is detected in the sample containing cAMP (see A.). […] AKAP18delta produced in a recombinant fashion was detected as positive control.

[4] = system: L-type Ca^2+ channel currents; assay: Patch-clamp measurement of L-type Ca2+ channel currents in neonatal rat myocardial cells; assay type: cell-based; details: isoproterenol 1 μM stimulation, FIG. 24
Description: Another experiment is measurement of the Ca^2+ currents through L-type Ca^2+ channels in primarily cultured myocardial cells from neonatal rats using the patch clamp technique. To this effect, membrane sections of a single cell are fixed by a buffer-filled glass capillary, and a constant voltage is applied across the membrane. A current pulse can trigger a measurable increase of the Ca^2+ current through the voltage-dependent L-type Ca^2+ channels situated in the fixed membrane region.
After stimulating the cells with the non-specific β-adrenoreceptor agonist isoproterenol, an increase of the Ca^2+ channel current is to be expected because receptor activation triggers the AKAP18alpha-dependent signal cascade described in section 3.3. As a result, the L-type Ca^2+ channel is phosphorylated, thereby increasing its open probability. Such measurements can be performed in the presence or absence of the substances, so that the effect on the signaling pathway can be quantified indirectly via the currents being measured.
L-type Ca^2+ channel currents were measured in neonatal rat myocardial cells using the patch-clamp technique. The cells were held at −70 mV and repeatedly depolarized to a test potential of 0 mV (after an increase to −35 mV for 400 ms). […] Currents were measured 400 s after the whole cell configuration had established. […]

T2 sequence (P12368 2-401): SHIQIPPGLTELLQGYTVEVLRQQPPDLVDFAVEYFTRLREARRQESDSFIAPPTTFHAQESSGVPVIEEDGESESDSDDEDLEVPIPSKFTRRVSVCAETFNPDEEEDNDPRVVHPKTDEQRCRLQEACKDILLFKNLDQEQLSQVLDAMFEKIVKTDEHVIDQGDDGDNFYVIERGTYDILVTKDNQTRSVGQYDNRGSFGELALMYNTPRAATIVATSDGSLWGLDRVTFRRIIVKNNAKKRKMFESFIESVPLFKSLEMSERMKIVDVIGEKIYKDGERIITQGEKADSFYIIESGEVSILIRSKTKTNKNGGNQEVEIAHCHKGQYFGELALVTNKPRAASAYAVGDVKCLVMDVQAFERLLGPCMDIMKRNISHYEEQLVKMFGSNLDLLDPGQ
T2 sequence (Q6JP77 whole entry): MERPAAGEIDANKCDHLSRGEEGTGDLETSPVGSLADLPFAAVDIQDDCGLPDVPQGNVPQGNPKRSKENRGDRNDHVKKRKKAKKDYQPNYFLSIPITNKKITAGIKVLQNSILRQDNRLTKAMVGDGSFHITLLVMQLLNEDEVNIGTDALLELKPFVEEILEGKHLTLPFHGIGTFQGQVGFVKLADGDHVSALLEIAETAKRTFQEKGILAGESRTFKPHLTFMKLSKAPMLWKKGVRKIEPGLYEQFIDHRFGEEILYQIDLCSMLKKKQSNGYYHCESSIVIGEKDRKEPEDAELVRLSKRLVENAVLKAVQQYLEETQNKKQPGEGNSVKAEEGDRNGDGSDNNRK
T1 sequence (Q6JP77 whole entry): as above
T1 sequence (P12368 whole entry): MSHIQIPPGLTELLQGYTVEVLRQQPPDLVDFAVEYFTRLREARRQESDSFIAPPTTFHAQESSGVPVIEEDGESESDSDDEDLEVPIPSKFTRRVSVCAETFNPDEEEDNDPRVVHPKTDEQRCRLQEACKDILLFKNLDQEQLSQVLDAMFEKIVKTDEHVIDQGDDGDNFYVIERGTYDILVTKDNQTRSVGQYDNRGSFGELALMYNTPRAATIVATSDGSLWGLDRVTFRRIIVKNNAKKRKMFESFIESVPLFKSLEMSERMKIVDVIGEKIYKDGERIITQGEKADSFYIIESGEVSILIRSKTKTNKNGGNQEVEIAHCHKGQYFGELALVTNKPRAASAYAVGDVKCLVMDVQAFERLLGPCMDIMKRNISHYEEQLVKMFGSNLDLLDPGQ

SMILES | Inhibition of AKAP18delta-RIIalpha interaction in IMCD cells [1] | Effect on AVP-induced redistribution of AQP2 [2] | Inhibition of AKAP18delta-RIIalpha interaction in myocardial cells [3] | Effect on L-type Ca2+ channel currents [4]
N=C(N)SCc1cccc2ccccc12 [Compound 990] | inhibits the interaction | prevents the AVP-induced redistribution of AQP2 | no influence | –
Nc1cc(Cc2ccc(O)c(N)c2)ccc1O [Compound 18882] | – | no influence | inhibits the interaction | Inhibition of L-type Ca^2+ channel currents
